Source: patent US10479795B2 (Incyte Corporation, priority 2016, dated 2019)
Structures can show the parent of a compound that is named as a salt.

Legend:
[1] = test system: Phosphorylated Ribosomal Protein S6 (RPS6); assay: THP-1 RPS6 ELISA Assay; format: cell-based, Human; details: Homo sapiens; THP-1 cells; read-out: PI3Kγ_THP1_RPS6_ELISA IC50
In short: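 Serum-starved THP-1 cells were preincubated with a concentration range of compound for 2 h at 37 °C, then stimulated with 10 nM MCP-1 for 15 min. Phospho-RPS6 in lysates was quantified by ELISA at 450 nm. IC50 came from percent inhibition versus log inhibitor concentration.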

[2] = molecular target: PI3Kγ (p110γ) Recombinant Human Protein (Homo sapiens (Human), UniProt P48736); assay: PI3K-γ Scintillation Proximity Assay; format: biochemical; details: read-out: PI3Kγ IC50
Chain of PI3Kγ (p110γ) Recombinant Human Protein (P48736 whole entry): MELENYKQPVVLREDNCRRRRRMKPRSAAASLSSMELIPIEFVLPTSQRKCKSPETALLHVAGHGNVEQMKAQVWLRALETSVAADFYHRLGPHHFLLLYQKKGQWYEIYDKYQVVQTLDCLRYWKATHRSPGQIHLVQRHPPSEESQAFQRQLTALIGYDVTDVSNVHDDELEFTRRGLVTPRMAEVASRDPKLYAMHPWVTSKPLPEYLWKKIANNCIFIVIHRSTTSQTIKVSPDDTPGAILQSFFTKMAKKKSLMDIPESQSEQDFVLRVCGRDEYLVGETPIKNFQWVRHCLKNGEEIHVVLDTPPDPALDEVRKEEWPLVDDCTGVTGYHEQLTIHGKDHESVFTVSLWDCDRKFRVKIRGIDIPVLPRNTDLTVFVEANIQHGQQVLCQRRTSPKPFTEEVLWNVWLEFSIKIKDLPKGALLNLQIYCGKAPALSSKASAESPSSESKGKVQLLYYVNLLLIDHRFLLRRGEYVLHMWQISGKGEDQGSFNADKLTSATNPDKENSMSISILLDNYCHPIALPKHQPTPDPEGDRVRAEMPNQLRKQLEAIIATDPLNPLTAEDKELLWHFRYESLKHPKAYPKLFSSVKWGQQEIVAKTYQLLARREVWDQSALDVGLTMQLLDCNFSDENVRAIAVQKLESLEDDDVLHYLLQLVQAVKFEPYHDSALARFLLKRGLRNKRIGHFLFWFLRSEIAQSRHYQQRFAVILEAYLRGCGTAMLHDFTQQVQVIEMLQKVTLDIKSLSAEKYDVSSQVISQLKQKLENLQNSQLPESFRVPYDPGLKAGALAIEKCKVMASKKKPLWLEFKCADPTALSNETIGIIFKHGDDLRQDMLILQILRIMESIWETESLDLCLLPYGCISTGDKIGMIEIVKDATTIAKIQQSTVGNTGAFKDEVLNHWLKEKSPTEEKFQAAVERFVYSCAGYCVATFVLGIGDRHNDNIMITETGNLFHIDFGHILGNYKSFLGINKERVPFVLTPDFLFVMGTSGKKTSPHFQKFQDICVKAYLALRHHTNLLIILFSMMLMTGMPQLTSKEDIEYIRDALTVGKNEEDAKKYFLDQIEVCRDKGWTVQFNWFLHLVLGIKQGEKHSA
In short: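 Recombinant human p110γ assayed at room temperature in 20 mM MOPS pH 6.7, 10 mM MgCl2, 5 mM DTT, 0.03% CHAPS, 2% DMSO, with 20 μM PIP2 and 2 μM ATP plus [γ-33P]ATP. Product captured on WGA SPA beads overnight and counted; IC50 fitted from % of solvent-control activity versus log inhibitor concentration.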

[3] = molecular target: PI3Kδ (p110δ/p85α) Recombinant Human Protein (Homo sapiens (Human), UniProt O00329); assay: PI3Kδ Scintillation Proximity Assay; format: biochemical
Chain of PI3Kδ (p110δ/p85α) Recombinant Human Protein (O00329 whole entry): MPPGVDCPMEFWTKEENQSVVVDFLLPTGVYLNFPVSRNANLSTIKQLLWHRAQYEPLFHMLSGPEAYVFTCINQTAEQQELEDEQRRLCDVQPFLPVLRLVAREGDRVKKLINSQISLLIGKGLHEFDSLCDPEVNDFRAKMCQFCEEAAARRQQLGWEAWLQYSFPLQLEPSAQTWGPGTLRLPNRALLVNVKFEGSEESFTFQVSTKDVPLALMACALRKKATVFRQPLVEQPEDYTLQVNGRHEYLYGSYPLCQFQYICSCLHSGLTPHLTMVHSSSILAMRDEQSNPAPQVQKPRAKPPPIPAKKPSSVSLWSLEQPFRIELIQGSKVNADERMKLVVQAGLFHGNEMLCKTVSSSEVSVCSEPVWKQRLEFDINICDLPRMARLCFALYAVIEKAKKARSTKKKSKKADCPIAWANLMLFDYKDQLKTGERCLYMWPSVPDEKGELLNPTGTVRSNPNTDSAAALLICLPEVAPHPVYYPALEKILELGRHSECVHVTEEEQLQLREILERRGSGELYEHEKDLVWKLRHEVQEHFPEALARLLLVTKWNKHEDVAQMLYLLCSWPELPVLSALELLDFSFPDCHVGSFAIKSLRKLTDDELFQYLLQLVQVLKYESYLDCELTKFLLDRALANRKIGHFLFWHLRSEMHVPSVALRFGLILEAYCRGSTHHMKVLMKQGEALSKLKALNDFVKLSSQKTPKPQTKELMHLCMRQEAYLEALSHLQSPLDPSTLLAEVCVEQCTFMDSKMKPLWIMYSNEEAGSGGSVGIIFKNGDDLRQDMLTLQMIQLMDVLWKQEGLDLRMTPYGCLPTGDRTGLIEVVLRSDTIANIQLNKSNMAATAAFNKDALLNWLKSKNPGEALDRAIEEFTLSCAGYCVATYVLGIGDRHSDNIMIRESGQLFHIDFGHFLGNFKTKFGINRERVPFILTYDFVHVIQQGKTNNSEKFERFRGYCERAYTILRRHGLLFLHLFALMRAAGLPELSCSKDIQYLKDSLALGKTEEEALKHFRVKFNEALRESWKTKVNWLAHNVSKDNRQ
Chain of PI3Kδ (p110δ/p85α) Recombinant Human Protein (P27986 whole entry partner): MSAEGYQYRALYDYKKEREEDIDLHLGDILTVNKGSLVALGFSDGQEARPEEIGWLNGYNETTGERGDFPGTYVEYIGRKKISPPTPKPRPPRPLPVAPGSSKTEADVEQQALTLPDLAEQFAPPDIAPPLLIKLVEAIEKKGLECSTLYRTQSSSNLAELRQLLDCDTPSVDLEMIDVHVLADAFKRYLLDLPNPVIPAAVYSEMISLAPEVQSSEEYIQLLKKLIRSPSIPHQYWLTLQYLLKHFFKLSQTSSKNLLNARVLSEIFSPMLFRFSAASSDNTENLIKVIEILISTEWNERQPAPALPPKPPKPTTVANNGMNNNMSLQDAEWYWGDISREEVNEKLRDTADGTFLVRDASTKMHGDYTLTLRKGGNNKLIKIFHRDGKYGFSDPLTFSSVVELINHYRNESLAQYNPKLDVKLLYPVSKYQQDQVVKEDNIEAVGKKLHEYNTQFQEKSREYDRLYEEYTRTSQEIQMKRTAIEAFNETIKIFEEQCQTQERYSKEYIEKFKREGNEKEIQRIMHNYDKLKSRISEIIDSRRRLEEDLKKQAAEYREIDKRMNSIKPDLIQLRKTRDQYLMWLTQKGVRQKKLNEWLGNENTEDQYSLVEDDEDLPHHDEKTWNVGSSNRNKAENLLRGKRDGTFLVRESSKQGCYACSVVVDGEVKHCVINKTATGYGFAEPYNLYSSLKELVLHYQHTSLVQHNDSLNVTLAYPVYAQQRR
In short: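 Recombinant human p110δ/p85α (3.4 nM) with 20 μM PIP2 and 2 μM ATP plus [γ-33P]ATP, in 20 mM MOPS pH 6.7, 10 mM MgCl2, 5 mM DTT, 0.03% CHAPS, 2% DMSO; 120 min at room temperature. Product captured on WGA SPA beads, scintillation counted; IC50 from percent-of-control curves.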

Compound	IC50 [1]	IC50 [2]	IC50 [3]
Cc1ccc(S(=O)(=O)N[C@H]2CC[C@H](O)CC2)cc1-c1cnc2c(N)nc(C(C)C)cn12 [Example 504, 3-(8-Amino-6-isopropylimidazo[1,2-a]pyrazin-3-yl)-N-(trans-4-hydroxycyclohexyl)-4-methylbenzenesulfonamide]	< 0.1 µM	< 0.1 µM	< 0.1 µM
Cc1cn2c(-c3cc(S(=O)(=O)N[C@H]4CC[C@](C)(O)CC4)ccc3C)cnc2c(N)n1 [Example 505, 3-(8-Amino-6-methylimidazo[1,2-a]pyrazin-3-yl)-N-((1r,4r)-4-hydroxy-4-methylcyclohexyl)-4-methylbenzenesulfonamide]	0.1 to 0.5 µM	< 0.1 µM	< 0.1 µM
Cc1ccc(S(=O)(=O)N2CC[C@H](O)C2)cc1-c1cnc2c(N)nc(-c3ccc(CO)cc3F)cn12 [Example 506, (S)-1-((3-(8-Amino-6-(2-fluoro-4-(hydroxymethyl)phenyl)imidazo[1,2-a]pyrazin-3-yl)-4-methylphenyl)sulfonyl)pyrrolidin-3-ol]	< 0.1 µM	< 0.1 µM	< 0.1 µM
[2H][C@]1(NS(=O)(=O)c2ccc(C)c(-c3cnc4c(N)ncnn34)c2)CC[C@@](C)(O)CC1 [Example 507, 3-(4-Aminoimidazo[2,1-f][1,2,4]triazin-7-yl)-N-((1s,4s)-4-hydroxy-4-methylcyclohexyl-1-d)-4-methylbenzenesulfonamide]	0.5 to 1 µM	< 0.1 µM	0.1 to 0.5 µM
[2H][C@]1(NS(=O)(=O)c2ccc(C)c(-c3cnc4c(N)ncnn34)c2)CC[C@](C)(O)CC1 [Example 508, 3-(4-Aminoimidazo[2,1-f][1,2,4]triazin-7-yl)-N-((1r,4r)-4-hydroxy-4-methylcyclohexyl-1-d)-4-methylbenzenesulfonamide trifluoroacetate]	0.5 to 1 µM	< 0.1 µM	0.1 to 0.5 µM
CCOC(=O)C1CCCN(S(=O)(=O)c2ccc(C)c(-c3cnc4c(N)nc(C(F)(F)F)cn34)c2)C1 (stereo not drawn) [Example 509, Ethyl 1-((3-(8-amino-6-(trifluoromethyl)imidazo[1,2-a]pyrazin-3-yl)-4-methylphenyl)sulfonyl)piperidine-3-carboxylate]	> 1 µM	< 0.1 µM	0.5 to 2 µM
Cc1ccc(S(=O)(=O)N2CCCC(C(=O)O)C2)cc1-c1cnc2c(N)nc(C(F)(F)F)cn12 (stereo not drawn) [Example 510, 1-((3-(8-Amino-6-(trifluoromethyl)imidazo[1,2-a]pyrazin-3-yl)-4-methylphenyl)sulfonyl)piperidine-3-carboxylic acid trifluoroacetate]	> 1 µM	< 0.1 µM	0.1 to 0.5 µM
Cc1ccc(S(=O)(=O)N2CCCC(CN)C2)cc1-c1cnc2c(N)nc(C(F)(F)F)cn12 (stereo not drawn) [Example 513, 3-(5-((3-(Aminomethyl)piperidin-1-yl)sulfonyl)-2-methylphenyl)-6-(trifluoromethyl)imidazo[1,2-a]pyrazin-8-amine trifluoroacetate]	0.1 to 0.5 µM	< 0.1 µM	0.1 to 0.5 µM
Cc1ccc(S(=O)(=O)N2CCCC(N)C2)cc1-c1cnc2c(N)nc(C(F)(F)F)cn12 (stereo not drawn) [Example 516, 3-(5-((3-Aminopiperidin-1-yl)sulfonyl)-2-methylphenyl)-6-(trifluoromethyl)imidazo[1,2-a]pyrazin-8-amine trifluoroacetate]	< 0.1 µM	< 0.1 µM	< 0.1 µM
Cc1ccc(S(=O)(=O)N[C@H]2CC[C@](C)(O)CC2)cc1-c1cnc2c(N)ccnn12 [Example 518, 3-(8-Aminoimidazo[1,2-b]pyridazin-3-yl)-N-((1r,4r)-4-hydroxy-4-methylcyclohexyl)-4-methylbenzenesulfonamide]	0.1 to 0.5 µM	0.1 to 0.5 µM	0.5 to 2 µM
Cc1ccc(S(=O)(=O)NCC(C)(C)O)cc1-c1cnc2c(NCc3ccccc3)nc(C(F)(F)F)cn12 [Example 519, 3-(8-(Benzylamino)-6-(trifluoromethyl)imidazo[1,2-a]pyrazin-3-yl)-N-(2-hydroxy-2-methylpropyl)-4-methylbenzenesulfonamide]	> 1 µM	0.1 to 0.5 µM	< 0.1 µM
